Measured values published in PubChem BioAssay (NCI).
Several values for one entry are separate records, joined by “and”; a condition that tells them apart may be missing. Equal values may be shown once.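 Briefly, cells in 96-well plates were exposed to five compound concentrations for 48 h, and endpoints were estimated by linear interpolation. GI50 = concentration required for 50% inhibition of growth. Definition used: TGI = concentration required for complete inhibition of growth.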

What was measured:
Assay in all cases: NCI-60 cell line screen, 48 h
[1] = system: CAKI-1 renal
[2] = system: CCRF-CEM leukemia
[3] = system: EKVX NSCLC
[4] = system: OVCAR-8 ovarian
[5] = system: RXF 393 renal
[6] = system: SF-539 CNS
[7] = system: SN12C renal
[8] = system: SR leukemia
[9] = system: A498 renal
[10] = system: MDA-MB-435

SMILES: FC(F)(F)c1nc(-c2ccccc2Cl)[nH]c1C(F)(F)F
- TGI [1]: 1.65 µM
- TGI [2]: 1.6 µM
- TGI [3]: 2.25 µM
- TGI [4]: 6.14 µM
- TGI [5]: 2.69 µM
- TGI [6]: 4.48 µM
- TGI [7]: 3.14 µM
- TGI [8]: 1.68 µM

SMILES: Cn1cc(NC(=O)c2cc(NC(=O)CCCCCCCCCCC(=O)Nc3cc(C(=O)Nc4cc(C(=O)NCCC(=N)N)n(C)c4)n(C)c3)cn2C)cc1C(=O)NCCC(=N)N
- TGI [1]: > 100 µM
- TGI [2]: > 100 µM
- TGI [3]: 90.2 µM
- TGI [4]: 53.5 µM
- TGI [5]: 77.5 µM
- TGI [6]: > 100 µM
- TGI [7]: > 100 µM

SMILES: CCC(C)C1NC(=O)c2nc(oc2-c2ccccc2)-c2csc(n2)-c2csc(n2)-c2nc(oc2C)-c2coc(n2)CNC(=O)C(C(C)CC)NC1=O (stereo not given)
- GI50 [9]: 0.16 µM
- TGI [9]: 0.343 µM
- GI50 [1]: 0.0371 µM
- TGI [1]: 0.151 µM
- GI50 [10]: 0.0464 µM
- TGI [10]: 0.163 µM
- GI50 [4]: 0.0216 µM
- TGI [4]: 0.182 µM
- GI50 [5]: 0.0334 µM
- TGI [5]: 0.166 µM
- GI50 [6]: 0.111 µM
- TGI [6]: 0.239 µM
- GI50 [8]: 0.0327 µM
- TGI [8]: 0.212 µM

SMILES: O=c1cc(-c2cccc(F)c2)[nH]c2cc3c(cc12)OCO3
- TGI [9]: > 9.41 µM
- TGI [1]: > 53.3 µM
- GI50 [2]: 0.346 µM
- TGI [2]: 75 µM and > 10.8 µM
- TGI [3]: > 100 µM
- TGI [10]: 0.0211 µM
- GI50 [4]: 0.286 µM
- TGI [4]: 5.02 µM and 1.55 µM
- TGI [5]: 4.84 µM
- GI50 [6]: 0.133 µM
- TGI [6]: 0.301 µM and 0.247 µM
- GI50 [7]: 0.411 µM
- TGI [7]: 75 µM and 23.3 µM

SMILES: Cc1cc2c(cc1C)[n+](=O)c(C(=O)C/C(=N/NC(=O)c1ccccc1O)C(=O)Nc1ccccc1C(C)C)c(C)n2[O-]
- TGI [9]: > 100 µM
- TGI [1]: > 100 µM
- TGI [2]: 94.1 µM
- TGI [3]: > 100 µM
- TGI [4]: > 100 µM
- TGI [5]: > 100 µM
- TGI [6]: > 100 µM
- TGI [7]: > 100 µM

SMILES: COc1ccc(-c2cc(-c3cc(Cl)ccc3Cl)nc3[nH]c(-c4cc(F)c(Cl)cc4Cl)cc(=O)c23)cc1
- GI50 [1]: 34.1 µM
- TGI [1]: > 100 µM
- GI50 [2]: 18.4 µM
- TGI [2]: 55.1 µM
- GI50 [3]: 45 µM
- TGI [3]: > 100 µM
- GI50 [10]: 6.4 µM
- TGI [10]: > 100 µM
- GI50 [4]: 17 µM
- TGI [4]: 51.3 µM
- GI50 [5]: 17.4 µM
- TGI [5]: > 100 µM
- GI50 [6]: 18.9 µM
- TGI [6]: 55 µM
- GI50 [7]: 24.5 µM
- TGI [7]: 76.8 µM

SMILES: N#CC1(c2nc3ccccc3o2)C(=O)C(=O)N(C2C3CC4CC(C3)CC2C4)C(=O)C1=O (stereo not given)
- TGI [9]: > 100 µM
- TGI [1]: > 100 µM
- TGI [2]: > 100 µM
- TGI [3]: > 100 µM
- TGI [4]: > 100 µM
- TGI [5]: > 100 µM
- TGI [6]: > 100 µM
- TGI [7]: > 100 µM
- TGI [8]: > 100 µM

SMILES: CCOC(=O)C1=C(C)Nc2ccccc2S1
- TGI [9]: > 100 µM
- TGI [1]: > 100 µM
- TGI [2]: > 100 µM
- TGI [3]: > 100 µM
- TGI [5]: > 100 µM
- TGI [6]: > 100 µM
- TGI [7]: > 100 µM
- TGI [8]: > 100 µM

SMILES: N#Cc1c(-c2cccs2)c2c(=S)[nH]c(=S)[nH]c2[nH]c1=S
- GI50 [1]: 31.4 µM
- TGI [1]: > 100 µM
- GI50 [3]: 20 µM
- TGI [3]: 60.8 µM
- GI50 [10]: 41.1 µM
- TGI [10]: > 100 µM
- GI50 [5]: 37.1 µM
- TGI [5]: > 100 µM
- GI50 [6]: 22 µM
- TGI [6]: 48.1 µM
- GI50 [7]: 43 µM
- TGI [7]: > 100 µM
- GI50 [8]: 29.3 µM
- TGI [8]: > 100 µM

SMILES: CN(C)/C(=N/C(=S)Nc1ccccc1)SCc1ccccc1
- TGI [9]: > 100 µM
- TGI [1]: > 100 µM
- TGI [2]: > 100 µM
- TGI [3]: > 100 µM
- TGI [4]: > 100 µM
- TGI [5]: > 100 µM
- TGI [6]: > 100 µM
- TGI [7]: > 100 µM
